Laboratory results: the supplement of paper PMC11208160

assay: recombinant UMI read abundance after kanamycin selection (control-corrected) (log10(CPM+1)); higher = more efficient recombination; extreme values may be limits of the assay; sequences stand for … in AGTGCAGAGAAAATCGGCCAGTTTTCTCTGCCTGCAGTCCGCATGCCGTGGGACCCCTTGGGTTCTAACCTGTTGCCTAGATTTATGCAGCGGACTGCCTTTCTCCCAAAGTGATAAACCGG…AGGTTGGTTTCACT; site = the 11-nt donor
Protocol: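 Pooled E. coli donor-specificity screen for the IS621 bridge recombinase. Each library member carries a reprogrammed 11-nt donor and a full-length LE bridge RNA expressed in cis from the natural promoter, with a paired donor-binding loop (8-nt LDG + 4-nt RDG) and a target-binding loop fixed to T5. It is co-electroporated with a T5 target plasmid; recombinase is induced with 0.07 mM IPTG and recombinants are selected on kanamycin. UMIs are counted as CPM, averaged over two biological replicates and corrected by the unselected control. Molecule = full bridge RNA written as DNA, built from the T5 scaffold: LDG = donor specificity nt 1-8, RDG = reverse complement of nt 8-11.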
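Further: IS621 bridge recombinase in Escherichia coli cells against a fixed T5 target plasmid.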

Row | Sequence | recombinant UMI read abundance (log10)
1 | ACATTGCCATGGACCGGTTTTCCCGGTAATCCGTATTTGGG (site ACATTGCCTCC) | 0.0159
2 | ACATTGGCATGGACCGGTTTTCCCGGTAATCCGTATTTGTT (site ACATTGGCTAA) | 1.53
3 | ACCAATTCATGGACCGGTTTTCCCGGTAATCCGTATTTGCC (site ACCAATTCTGG) | 2.25
4 | ACCAATTCATGGACCGGTTTTCCCGGTAATCCGTATTTGCC (site CCCAATTCTGG) | 1.91
5 | ACCAATTCATGGACCGGTTTTCCCGGTAATCCGTATTTGCC (site GCCAATTCTGG) | 0.507
6 | ACCAATTCATGGACCGGTTTTCCCGGTAATCCGTATTTGCC (site TCCAATTCTGG) | 0.66
7 | ACCAGAACATGGACCGGTTTTCCCGGTAATCCGTATTTGAG (site ACAAGAACTCT) | 0
8 | ACCAGAACATGGACCGGTTTTCCCGGTAATCCGTATTTGAG (site ACCAGAACTCT) | 2.19
9 | ACCAGAACATGGACCGGTTTTCCCGGTAATCCGTATTTGAG (site ACGAGAACTCT) | 0
10 | ACCAGAACATGGACCGGTTTTCCCGGTAATCCGTATTTGAG (site ACTAGAACTCT) | 0.155
11 | ACCAGCTCATGGACCGGTTTTCCCGGTAATCCGTATTTGTC (site ACCAGCTCTGA) | 2.47
12 | ACCATATCATGGACCGGTTTTCCCGGTAATCCGTATTTGTC (site ACCATATCTGA) | 2.03
13 | ACCATATCATGGACCGGTTTTCCCGGTAATCCGTATTTGTC (site CCCATATCTGA) | 0
14 | ACCATATCATGGACCGGTTTTCCCGGTAATCCGTATTTGTC (site GCCATATCTGA) | 0
15 | ACCATATCATGGACCGGTTTTCCCGGTAATCCGTATTTGTC (site TCCATATCTGA) | 0
16 | ACCCAATCATGGACCGGTTTTCCCGGTAATCCGTATTTGGA (site ACCCAATCTTC) | 2.04
17 | ACCCACACATGGACCGGTTTTCCCGGTAATCCGTATTTGTA (site ACCCACACTTA) | 1.92
18 | ACCCACACATGGACCGGTTTTCCCGGTAATCCGTATTTGTA (site CCCCACACTTA) | 0.963
19 | ACCCACACATGGACCGGTTTTCCCGGTAATCCGTATTTGTA (site GCCCACACTTA) | 0.0193
20 | ACCCACACATGGACCGGTTTTCCCGGTAATCCGTATTTGTA (site TCCCACACTTA) | 0.408
21 | ACCCATTCATGGACCGGTTTTCCCGGTAATCCGTATTTGGA (site ACCCATTCTTC) | 1.53
22 | ACCCCAACATGGACCGGTTTTCCCGGTAATCCGTATTTGGT (site ACCCCAACTAC) | 0.756
23 | ACCCCATCATGGACCGGTTTTCCCGGTAATCCGTATTTGAT (site ACCCCATCTAT) | 1.23
24 | ACCCCGACATGGACCGGTTTTCCCGGTAATCCGTATTTGTG (site ACCCCGACTCA) | 0.965

Row | Sequence | recombinant UMI read abundance (log10)
25 | ACCCCTACATGGACCGGTTTTCCCGGTAATCCGTATTTGAA (site ACCCCTACTTT) | 1.06
26 | ACCCGCTCATGGACCGGTTTTCCCGGTAATCCGTATTTGCA (site ACCCGCTCTTG) | 2.9
27 | ACCCTCACATGGACCGGTTTTCCCGGTAATCCGTATTTGTA (site ACCCTCACTTA) | 0.59
28 | ACCCTTACATGGACCGGTTTTCCCGGTAATCCGTATTTGAG (site ACCCTTACTCT) | 1.66
29 | ACCCTTTCATGGACCGGTTTTCCCGGTAATCCGTATTTGAC (site AACCTTTCTGT) | 0
30 | ACCCTTTCATGGACCGGTTTTCCCGGTAATCCGTATTTGAC (site ACCCTTTCTGT) | 0
31 | ACCCTTTCATGGACCGGTTTTCCCGGTAATCCGTATTTGAC (site AGCCTTTCTGT) | 0
32 | ACCCTTTCATGGACCGGTTTTCCCGGTAATCCGTATTTGAC (site ATCCTTTCTGT) | 0
33 | ACCGAGACATGGACCGGTTTTCCCGGTAATCCGTATTTGGG (site ACCAAGACTCC) | 0.109
34 | ACCGAGACATGGACCGGTTTTCCCGGTAATCCGTATTTGGG (site ACCCAGACTCC) | 0.0111
35 | ACCGAGACATGGACCGGTTTTCCCGGTAATCCGTATTTGGG (site ACCGAGACTCC) | 0.621
36 | ACCGAGACATGGACCGGTTTTCCCGGTAATCCGTATTTGGG (site ACCTAGACTCC) | 0
37 | ACCGAGCCATGGACCGGTTTTCCCGGTAATCCGTATTTGAT (site ACCGAGCCTAT) | 1.13
38 | ACCGATACATGGACCGGTTTTCCCGGTAATCCGTATTTGAA (site ACCGATACTTT) | 1.6
39 | ACCGCTACATGGACCGGTTTTCCCGGTAATCCGTATTTGCC (site ACCGCTACTGG) | 1.75
40 | ACCGGACCATGGACCGGTTTTCCCGGTAATCCGTATTTGGC (site ACCGGACCTGC) | 0
41 | ACCGGTCCATGGACCGGTTTTCCCGGTAATCCGTATTTGCA (site ACCGGTCCTTG) | 0
42 | ACCGGTCCATGGACCGGTTTTCCCGGTAATCCGTATTTGCA (site CCCGGTCCTTG) | 0
43 | ACCGGTCCATGGACCGGTTTTCCCGGTAATCCGTATTTGCA (site GCCGGTCCTTG) | 0
44 | ACCGGTCCATGGACCGGTTTTCCCGGTAATCCGTATTTGCA (site TCCGGTCCTTG) | 0
45 | ACCGGTCCATGGACCGGTTTTCCCGGTAATCCGTATTTGTT (site ACCGGTCCTAA) | 0
46 | ACCTACGCATGGACCGGTTTTCCCGGTAATCCGTATTTGAA (site ACCTACGCTTT) | 1.09
47 | ACCTAGACATGGACCGGTTTTCCCGGTAATCCGTATTTGAG (site ACCTAGACTCA) | 0.226
48 | ACCTAGACATGGACCGGTTTTCCCGGTAATCCGTATTTGAG (site ACCTAGACTCC) | 0.241

Row | Sequence | recombinant UMI read abundance (log10)
49 | ACCTAGACATGGACCGGTTTTCCCGGTAATCCGTATTTGAG (site ACCTAGACTCG) | 0.352
50 | ACCTAGACATGGACCGGTTTTCCCGGTAATCCGTATTTGAG (site ACCTAGACTCT) | 1.17
51 | ACCTAGACATGGACCGGTTTTCCCGGTAATCCGTATTTGGT (site ACCTAGACTAC) | 0.0673
52 | ACCTAGACATGGACCGGTTTTCCCGGTAATCCGTATTTGGT (site ACCTAGACTCC) | 0.0175
53 | ACCTAGACATGGACCGGTTTTCCCGGTAATCCGTATTTGGT (site ACCTAGACTGC) | 0
54 | ACCTAGACATGGACCGGTTTTCCCGGTAATCCGTATTTGGT (site ACCTAGACTTC) | 0.0137
55 | ACCTCAGCATGGACCGGTTTTCCCGGTAATCCGTATTTGGG (site AACTCAGCTCC) | 0.0172
56 | ACCTCAGCATGGACCGGTTTTCCCGGTAATCCGTATTTGGG (site ACCTCAGCTCC) | 0.00849
57 | ACCTCAGCATGGACCGGTTTTCCCGGTAATCCGTATTTGGG (site AGCTCAGCTCC) | 0.0171
58 | ACCTCAGCATGGACCGGTTTTCCCGGTAATCCGTATTTGGG (site ATCTCAGCTCC) | 0.0291
59 | ACCTCGTCATGGACCGGTTTTCCCGGTAATCCGTATTTGAA (site ACCTCGTCTTT) | 0.5
60 | ACCTGAACATGGACCGGTTTTCCCGGTAATCCGTATTTGGC (site ACCTGAACTGC) | 1.39
61 | ACCTTGCCATGGACCGGTTTTCCCGGTAATCCGTATTTGAA (site ACCTTGCCTTT) | 0.00655
62 | ACGAAAACATGGACCGGTTTTCCCGGTAATCCGTATTTGCA (site ACGAAAACTTG) | 2.73
63 | ACGAAAACATGGACCGGTTTTCCCGGTAATCCGTATTTGCA (site AGGAAGACTTG) | 0
64 | ACGAGAACATGGACCGGTTTTCCCGGTAATCCGTATTTGAG (site ACAAGAACTCT) | 2.65
65 | ACGAGAACATGGACCGGTTTTCCCGGTAATCCGTATTTGAG (site ACCAGAACTCT) | 0.752
66 | ACGAGAACATGGACCGGTTTTCCCGGTAATCCGTATTTGAG (site ACGAGAACTCT) | 2.59
67 | ACGAGAACATGGACCGGTTTTCCCGGTAATCCGTATTTGAG (site ACTAGAACTCT) | 0.873
68 | ACGATTGCATGGACCGGTTTTCCCGGTAATCCGTATTTGGA (site ACGATTGCTTC) | 1.97
69 | ACGCACACATGGACCGGTTTTCCCGGTAATCCGTATTTGAA (site ACGCACACTTT) | 2.08
70 | ACGCATCCATGGACCGGTTTTCCCGGTAATCCGTATTTGAC (site ACACATCCTGT) | 1.31
71 | ACGCATCCATGGACCGGTTTTCCCGGTAATCCGTATTTGAC (site ACCCATCCTGT) | 0
72 | ACGCATCCATGGACCGGTTTTCCCGGTAATCCGTATTTGAC (site ACGCATCCTGT) | 1.8
